Target: T1, Angiotensin-II-Receptor (Rattus norvegicus, UniProt P25095)
T1 construct: The tissue (rat's lung) is homogenised in Tris buffer; from tissue; host or cells: rat lung homogenate
T1 sequence (P25095 1-359): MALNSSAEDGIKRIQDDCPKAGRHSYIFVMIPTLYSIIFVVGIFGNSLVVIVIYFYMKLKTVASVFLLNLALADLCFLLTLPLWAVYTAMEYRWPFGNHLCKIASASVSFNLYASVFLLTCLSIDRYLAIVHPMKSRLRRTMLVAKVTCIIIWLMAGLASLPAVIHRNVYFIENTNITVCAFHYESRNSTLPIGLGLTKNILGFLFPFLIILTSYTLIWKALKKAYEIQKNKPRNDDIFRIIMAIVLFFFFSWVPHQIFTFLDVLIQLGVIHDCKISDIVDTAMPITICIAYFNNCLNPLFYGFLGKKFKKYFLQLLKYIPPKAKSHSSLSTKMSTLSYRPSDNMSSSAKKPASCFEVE
Assay: Angiotensin-II-Receptor Bonding ([125I]-angiotensin-II displacement, rat's lung homogenate)
Format: binding
Conditions: 50 pM [125I]-angiotensin-II, 60 minutes at 37° C., pH 7.40
Protocol: Description of Method: Angiotensin-II-Receptor Bonding
The tissue (rat's lung) is homogenised in Tris buffer (50 mMol Tris, 150 mMol NaCl, 5 mMol EDTA, pH 7.40) and centrifuged twice for 20 minutes each time at 20,000×g. The finished pellet is resuspended in incubation buffer (50 mMol Tris, 5 mMol MgCl2, 0.2% BSA, pH 7.40) 1:75, based on the moist weight of the tissue. Each 0.1 ml of homogenate is incubated for 60 minutes at 37° C. with 50 pM [^125 I]-angiotensin-II (NEN, Dreieich, FRG) and increasing concentrations of the test substance in a total volume of 0.25 ml. The incubation is ended by rapid filtration through glass fibre filter mats. The filters are each washed with 4 ml of ice cold buffer (25 mMol Tris, 2.5 mMol MgCl2, 0.1% BSA, pH 7.40). The bound radioactivity is measured in a gamma-counter. The corresponding IC50 value is determined from the dosage-activity curve.
Substances A to H show the following IC50 values in the test described: […]

SMILES | IC50 [nM]
CCCc1nc2c(C)cc(NC(=NC#N)NC)cc2n1Cc1ccc(-c2ccccc2C(=O)O)cc1 [Substance A, 4'-[[2-n-Propyl-4-methyl-6-(2-cyano-3-methyl-guanidino)-1H-benzimidazol-1-yl]-methyl]-biphenyl-2-carboxylic acid] | 11
CCCc1nc2c(C)cc(NC(=C[N+](=O)[O-])N(C)C)cc2n1Cc1ccc(-c2ccccc2C(=O)O)cc1 [Substance D, 4'-[[2-n-propyl-4-methyl-6-(1-dimethylamino-2-nitro-etheneamino) -1H-benzimidazol-1-yl]methyl]-biphenyl-2-carboxylic acid] | 13
CCCc1nc2c(C)cc(NC(=C(C#N)C#N)N(C)C)cc2n1Cc1ccc(-c2ccccc2C(=O)O)cc1 [Substance C, 4'-[[2-n-propyl-4-methyl-6-(2,2-dicyano-1-dimethylamino-etheneamino) -1H-benzimidazol-1-yl]-methyl]-biphenyl-2-carboxylic acid] | 64
CCCc1nc2c(C)cc(NC(=C[N+](=O)[O-])N(C)C)cc2n1Cc1ccc(-c2ccccc2-c2nnn[nH]2)cc1 [Substance F, 4'-[[2-n-propyl-4-methyl-6-(1,1-dimethylamino-2-nitro-etheneamino) -1H-benzimidazol-1-yl]-methyl]-2-(1H-tetrazol-5-yl)-biphenyl] | 2
CCc1nc2c(C)cc(NC(=NS(C)(=O)=O)N(C)C)cc2n1Cc1ccc(-c2ccccc2-c2nnn[nH]2)cc1 [Substance H, 4'-[[2-ethyl-4-methyl-6-(3,3-dimethyl-2-methylsulphonyl-guanidino) -1H-benzimidazol-1-yl]methyl]-2-(1H-tetrazol-5-yl)-biphenyl] | 4
CCc1nc2c(C)cc(Nc3c(N(C)C)c(=O)c3=O)cc2n1Cc1ccc(-c2ccccc2C(=O)O)cc1 [Substance G, 4'-[[2-ethyl-4-methyl-6-[(2-dimethylamino-3,4-dioxo-1-cyclobuten-1-yl) -amino]-1H-benzimidazol-1-yl]-methyl]-biphenyl-2-carboxylic acid] | 17
CCCc1nc2c(C)cc(NC(=NS(N)(=O)=O)NC)cc2n1Cc1ccc(-c2ccccc2C(=O)O)cc1 [Substance E, 4'-[[2-n-propyl-4-methyl-6-(3-methyl-2-amidosulphonylguanidino) -1H-benzimidazol-1-yl]methyl]-biphenyl-2-carboxylic acid] | 56
CCCc1nc2c(C)cc(NC(=NC#N)N(C)C)cc2n1Cc1ccc(-c2ccccc2-c2nnn[nH]2)cc1 [Substance B, 4'-[[2-n-propyl-4-methyl-6-(2-cyano-3,3-dimethyl-guanidino) -1H-benzimidazol-1-yl]-methyl]-2-(1H-tetrazol-5-yl)-biphenyl] | 3
